# Values of other authors in PMC11659887 (ACS Bio & Med Chem Au, 2024).
# Tested on: SARS-CoV-2 M^pro E166Q
structure (smiles),measurement,value
"CC(C)(C)[C@H](NC(=O)C(F)(F)F)C(=O)N1C[C@H]2[C@@H]([C@H]1C(=O)N[C@H](C#N)C[C@@H]1CCNC1=O)C2(C)C [nirmatrelvir, Nirmatrelvir]",resistance to nirmatrelvir,no significant resistance
